{
  "source": "patent US12697411B2",
  "about": "“In-situ film-forming composition” (priority 2021, dated 2026)",
  "test": "Stability of the disinfectant (LAE) in contact with the polyamide lacquer, LC-MS of the film",
  "type": "physicochemical",
  "details": "Spray 1 (composition of Example 1) in polyamide-lacquered container, 3 months at 50° C.; LAE measured in film",
  "method": "Besides, the stability of the disinfectant (LAE) present in the composition of Example 1 of the present invention in contact with the polyamide lacquer of the container was measured. Full containers loaded with Spray 1 of the present invention were controlled at 50° C. for 3 months, at 40° C. form 4 to 9 months, and at 30° C. from 6 to 18 months. After that time, the composition was applied to a surface to form the adherent film, in which the amount of LAE was calculated (mg of LAE/g of film).\nThe method for calculating the amount of LAE consists of a liquid chromatography-mass spectrometry (LC-MS) analysis of the tested sample previously sprayed into a container (glass flask) and dried into a rotary evaporator. The exact and constant weight of the residue is determined. This residue is dissolved in Acetonitrile and doped with a known volume solution of a solution f the internal pattern (Dodine, commercially available) in a known concentration. Then it is stirred and then, pure water at pH 3-4 (acidified with HCl) is added still flushing, this allows precipitating the polymer. The supernatant is filtered and punctured by LC-MS.\n• Detector: ACQ-QDa mass Detector • Column: Kromasil 100-5-C18 150×4.0 mm. (5 μm, 100 Å) • System design: Mobil phase entrance-Column-PDA entrance-QDa entrance-Waste Exit\n• Fluxe: 1.00 mL/min. […]",
  "data": [
    {"smiles": "CCCCCCCCCCCC(=O)N[C@@H](CCCN=C(N)N)C(=O)OCC.Cl", "note": "[LAE, Ethyl lauroyl arginate hydrochloride salt]", "values": [
      {"measurement": "reduction of the amount of disinfectant (LAE)", "value": "about 11%"}
    ]}
  ]
}
